Data on twelve molecules can be found in ChEMBL document CHEMBL5360581, “Discovery of a novel dual functional phenylpyrazole-styryl hybrid that induces apoptotic and autophagic cell death in bladder cancer cells” (Eur J Med Chem, 2023).

Active and inactive are the calls of the source. The rule behind the calls is not given here.

Data set [1] is described as follows: Selectivity index, ratio of IC50 for cytotoxicity against human NHDF cells to IC50 for cytotoxicity against human EJ-28 cells.
Data set [2] has as its system EJ-28. Kind of data set: Cytotoxicity against human EJ-28 cells assessed inhibition of cell growth incubated for 72 hrs by MTT assay. Type of data set: functional, cell-based. Particulars: EJ-28, 72 h. In general terms: Tetrazolium dyes change colour on reduction, which living cells bring about.
Data set [3] deals with A549. Kind of data set: Cytotoxicity against human A549 cells assessed inhibition of cell growth incubated for 72 hrs by MTT assay. Particulars: A549, 72 h. In kind it is functional, cell-based.
For data set [4], the system named is HT-1080. Kind of data set: Cytotoxicity against human HT-1080 cells assessed inhibition of cell growth incubated for 72 hrs by MTT assay. In kind it is functional, cell-based. Particulars: HT-1080, 72 h.
Data set [5] in a line: Selectivity index, ratio of IC50 for cytotoxicity against human NHDF cells to IC50 for cytotoxicity against human A549 cells. Type of data set: toxicity, cell-based. The following applies: NHDF cells and A549 cells, read-out: Ratio IC50.
For data set [6], the system named is MCF7. Kind of data set: Cytotoxicity against human MCF7 cells assessed inhibition of cell growth incubated for 72 hrs by MTT assay. In kind it is functional, cell-based. The following applies: MCF7, 72 h.
Data set [7] has as its system SW-620. Kind of data set: Cytotoxicity against human SW620 cells assessed inhibition of cell growth incubated for 72 hrs by MTT assay. Particulars: SW-620, 72 h. Type of data set: functional, cell-based.
The subject of data set [8] is A549. Kind of data set: Antiproliferative activity against human A549 cells assessed as reduction in cell viability at 20 uM measured for 72 hrs by MTT assay. Type of data set: functional, cell-based.
In data set [9] the test system is EJ-28. Kind of data set: Antiproliferative activity against human EJ-28 cells assessed as reduction in cell viability at 20 uM measured for 72 hrs by MTT assay. In kind it is functional, cell-based.
Data set [10] in a line: Selectivity index, ratio of IC50 for cytotoxicity against human NHDF cells to IC50 for cytotoxicity against human HT-1080 cells.
In data set [11] the test system is MCF7. Put plainly: Antiproliferative activity against human MCF7 cells assessed as reduction in cell viability at 20 uM measured for 72 hrs by MTT assay. In kind it is functional, cell-based.
A short description of data set [12]: Selectivity index, ratio of IC50 for cytotoxicity against human NHDF cells to IC50 for cytotoxicity against human SW620 cells.
The test system of data set [13] is HT-1080. Kind of data set: Antiproliferative activity against human HT-1080 cells assessed as reduction in cell viability at 20 uM measured for 72 hrs by MTT assay. Type of data set: functional, cell-based.
Data set [14] deals with SW-620. Kind of data set: Antiproliferative activity against human SW620 cells assessed as reduction in cell viability at 20 uM measured for 72 hrs by MTT assay. Type of data set: functional, cell-based.
Data set [15] can be described thus: Selectivity index, ratio of IC50 for cytotoxicity against human NHDF cells to IC50 for cytotoxicity against human MCF7 cells. In kind it is toxicity, cell-based. The following applies: NHDF cells and MCF7 cells, read-out: Ratio IC50.
Data set [16] in a line: Cytotoxicity against human NHDF cells assessed inhibition of cell growth incubated for 72 hrs by MTT assay. Type of data set: toxicity, cell-based.

With `O=[N+]([O-])c1cccc(/C=C/c2cc(-c3ccccc3O)n(-c3ccccc3)n2)c1`, the “Ratio IC50” value in data set [1], in data set [10] and in [12] was 2 each time. Besides, the IC50 (in general, the concentration needed to halve the response being measured) in data set [2] is 7.4 µM; in data set [3], 21.7 µM; in [4] it was 16.5 µM; in data set [6] it was 15 µM; in [7] it was 9.7 µM. Further, the selectivity ratio in data set [5] and in data set [15] was 2 in each case. Besides, the outcome in data set [8], in data set [9], in [11], in data set [13] and in data set [14] was Active. This molecule also had an IC50 at 72 h in data set [16] of 42.9 µM.

Consider `Cc1ccc(/C=C/c2cc(-c3cc(Cl)ccc3O)n(-c3ccccc3)n2)s1`, for which the “Ratio IC50” value in data set [1], in [10] and in data set [12] was 1.7 in each case. Further, the IC50 in data set [2] amounted to 8.6 µM; in [3], 22.7 µM; in [4], 21.7 µM; in data set [6], 11.1 µM; in data set [7], 23 µM. Besides, the selectivity ratio in data set [5] and in data set [15] was 1.7 each time. The result in data set [8], in data set [9], in data set [11], in data set [13] and in data set [14] was Active. This molecule also registered an IC50 at 72 h in data set [16] of 39.4 µM.

On to `Oc1ccc(Cl)cc1-c1cc(/C=C/c2ccc(Cl)c(Cl)c2)nn1-c1ccccc1`, for which the “Ratio IC50” value in data set [1], in data set [10] and in data set [12] was 2 in each case. The IC50 in data set [2] turned out to be 4.4 µM; in data set [3], 20.2 µM; in data set [4] it was 17.8 µM; in data set [6], 15 µM; in data set [7] it was 19.2 µM. The selectivity ratio in [5] and in data set [15] was 2 throughout. Further, the result in data set [8], in data set [9], in data set [11], in [13] and in data set [14] was Active. In data set [16], this molecule returned an IC50 at 72 h of 40.2 µM.

As for `O=c1[nH]cc(F)c(=O)[nH]1` [FLUOROURACIL], the “Ratio IC50” value in [1], in [10] and in data set [12] was 1.5 throughout. The IC50 is 11.4 µM in data set [2], 7.6 µM in data set [3], 6 µM in data set [4] and 32.5 µM in data set [7]. In [16], the IC50 at 72 h is greater than 50 µM.

Consider `Oc1ccccc1-c1cc(/C=C/c2ccc(Cl)c(Cl)c2)nn1-c1ccccc1`, for which the “Ratio IC50” value in [1], in [10] and in data set [12] was 2 in each case. Further, the IC50 in [2] came to 15.9 µM; in data set [3], 21.5 µM; in data set [4], 22.2 µM; in [6], 18.1 µM; in data set [7], 18.6 µM. Also, the selectivity ratio in data set [5] and in data set [15] was 2 in each case. Besides, the result in [8], in data set [9], in data set [11], in data set [13] and in data set [14] was Active. Further, the IC50 at 72 h in data set [16] came out at 43.5 µM.

For `Oc1ccc(Cl)cc1-c1cc(/C=C/c2ccccc2Cl)nn1-c1ccccc1`, the “Ratio IC50” value in data set [1] was found to be 1.5; in data set [10], 0.9; in data set [12] it was 1.5. In addition, the IC50 was found to be 5.1 µM in data set [2]; 13.2 µM in data set [3]; 10.9 µM in data set [4]; 5.7 µM in data set [6]; 9.5 µM in [7]. Moreover, the selectivity ratio in data set [5] was found to be 1.5; in data set [15] it was 0.9. In addition, the result in [8], in data set [9], in data set [11], in [13] and in [14] was Active. This molecule came in with an IC50 at 72 h in data set [16] of 19.7 µM.

Regarding `COc1cc(/C=C/c2cc(-c3ccccc3O)n(-c3ccccc3)n2)cc(OC)c1OC`, the “Ratio IC50” value in data set [1], in data set [10] and in data set [12] was greater than 3.4 throughout. In addition, the IC50 worked out at 12.3 µM in [2]; 14.6 µM in data set [3]; 14.1 µM in data set [4]; 10.4 µM in data set [6]; 7.6 µM in [7]. Further, the selectivity ratio in data set [5] and in data set [15] was greater than 3.4 in each case. Also, the outcome in [8], in data set [9], in [11], in [13] and in data set [14] was Active. Moreover, the IC50 at 72 h in data set [16] is greater than 50 µM.

On to `Cc1ccc(/C=C/c2cc(-c3ccccc3O)n(-c3ccccc3)n2)s1`, for which the “Ratio IC50” value in [1], in data set [10] and in data set [12] was 1.1 each time. Further, the IC50 amounted to 11 µM in data set [2]; 14.5 µM in [3]; 14.2 µM in data set [4]; 12.6 µM in data set [6]; 16.2 µM in data set [7]. Further, the selectivity ratio in data set [5] and in [15] was 1.1 each time. Besides, the result in data set [8], in data set [9], in [11], in data set [13] and in data set [14] was Active. In addition, in data set [16], the IC50 at 72 h is 17.9 µM.

On to `COc1ccc(/C=C/c2cc(-c3ccccc3O)n(-c3ccccc3)n2)cc1`, for which the “Ratio IC50” value in data set [1], in data set [10] and in data set [12] was greater than 2.4 throughout. The IC50 in data set [2] was 12.9 µM; in data set [3], 20.8 µM; in data set [4], 14.7 µM; in [6] it was 13 µM; in data set [7] it was 7.9 µM. Besides, the selectivity ratio in data set [5] and in data set [15] was greater than 2.4 in each case. The outcome in data set [8], in [9], in data set [11], in data set [13] and in data set [14] was Active. Further, in data set [16], the IC50 at 72 h is greater than 50 µM.

In the case of `Oc1ccccc1-c1cc(/C=C/c2cccs2)nn1-c1ccccc1`, the “Ratio IC50” value in data set [1], in data set [10] and in [12] was 1 each time. For the same molecule, the IC50 worked out at 14.3 µM in [2]; 18.5 µM in data set [3]; 12.8 µM in [4]; 9.1 µM in [6]; 11.9 µM in data set [7]. Also, the selectivity ratio in data set [5] and in data set [15] was 1 in each case. Besides, the result in data set [8], in [9], in data set [11], in [13] and in data set [14] was Active. Besides, in data set [16], half-maximal inhibition (IC50 at 72 h) was put at 19.2 µM.

On to `COc1cccc(/C=C/c2cc(-c3cc(Cl)ccc3O)n(-c3ccccc3)n2)c1`, for which the “Ratio IC50” value in [1], in [10] and in data set [12] was 2.3 each time. Besides, the IC50 in data set [2] was 8.6 µM; in [3], 16.5 µM; in [4], 17.4 µM; in [6] it was 10.9 µM; in data set [7], 19.5 µM. Moreover, the selectivity ratio in data set [5] and in data set [15] was 2.3 throughout. Besides, the outcome in data set [8], in data set [9], in data set [11], in data set [13] and in [14] was Active. Also, in [16], the IC50 at 72 h was found to be 45.6 µM.

`COc1ccc(/C=C/c2cc(-c3ccccc3O)n(-c3ccccc3)n2)cc1OC`: the “Ratio IC50” value in [1], in data set [10] and in data set [12] was greater than 2.6 in each case. Besides, the IC50 is 18.6 µM in data set [2]; 19.2 µM in [3]; 15.9 µM in data set [4]; 13 µM in [6]; 18.5 µM in data set [7]. Besides, the selectivity ratio in [5] and in data set [15] was greater than 2.6 in each case. For the same molecule, the outcome in data set [8], in data set [9], in data set [11], in [13] and in data set [14] was Active. The same molecule gave an IC50 at 72 h in data set [16] greater than 50 µM.
